# In PubChem BioAssay (NCI):
# Where “and” joins values, the source holds several entries; their conditions need not be identical. Equal values may be shown once.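 Step 1: Grow cells in 96-well plates. Step 2: Expose to compound for 48 hours at 5 concentrations. Step 3: Interpolate endpoints linearly; if unreached, use highest concentration. GI50: concentration for 50% inhibition of growth. TGI denotes the concentration required for complete inhibition of growth.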
# What was measured:
# Experiment in all cases: NCI anticancer screen, dose series, 48 h
# [1] = system: SK-MEL-2 melanoma
# [2] = system: HOP-92 NSCLC
# [3] = system: UACC-257 melanoma
# [4] = system: A549 NSCLC
# [5] = system: CAKI-1 renal
# [6] = system: RXF 393 renal
# [7] = system: SNB-19 CNS
# [8] = system: NCI-H226 lung
# [9] = system: SW-620 colon
# [10] = system: BT-549 breast
Structure (SMILES),TGI [1],TGI [2],TGI [3],TGI [4],TGI [5],TGI [6],TGI [7],TGI [8],TGI [9],GI50 [2] [nM],GI50 [3] [µM],GI50 [4] [µM],GI50 [5],GI50 [7] [µM],GI50 [1] [µM],GI50 [9] [µM],GI50 [6] [µM],GI50 [10] [µM],TGI [10],GI50 [8] [µM]
CC(/C=C/C(=O)c1sc(C(N)=S)nc1C)=C\c1ccccc1,> 100 µM,> 100 µM,> 100 µM,> 100 µM,56.4 µM,> 100 µM,31.2 µM,> 100 µM,,,,,,,,,,,,
Cc1ccc2oc(=O)c3c(O)c4cccc(OC5OC(C)C6O[C@@H](c7ccccc7)OC6C5OC5OC(C)C(O)C(O)C5O)c4c4oc(=O)c1c2c34 (stereo partly specified),1.68 µM,2.22 µM and 2.13 µM,1.82 µM and 2.12 µM,0.521 µM and 0.924 µM,,0.763 µM,,0.211 µM,2.43 µM and 7.53 µM,333,0.309,0.0214,0.0415 µM,0.0266,,,,,,
Cc1cc(=O)[nH]c(N/N=C/c2ccccc2O)n1,> 100 µM,,34.7 µM,> 100 µM,> 100 µM,92.6 µM,> 100 µM,> 100 µM,> 100 µM,,3.67,4.4,5.19 µM,24.5,> 100,4.6,12.8,25.3,> 100 µM,24.3
Cc1nc(NS(=O)(=O)c2ccc(NCN3C(=O)c4ccccc4C3=O)cc2)oc1C,> 100 µM,,> 100 µM,> 100 µM,> 100 µM,> 100 µM,> 100 µM,> 100 µM,> 100 µM,,> 100,> 100,> 100 µM,> 100,> 100,> 100,> 100,> 100,> 100 µM,> 100
CC1=NN(c2ccccc2)C(=O)C12[C@H](c1ccccc1)C2(C#N)C#N (stereo partly specified),16.7 µM,7.81 µM,18.4 µM,31.9 µM,16.3 µM,14.6 µM,29.5 µM,26.3 µM,3.84 µM,,,,,,,,,,,
CN1CCN=C1c1nnn(-c2ccc([N+](=O)[O-])cc2)c1-c1ccccc1,> 100 µM,94.5 µM,> 100 µM,> 100 µM,> 100 µM,> 100 µM,> 100 µM,> 100 µM,> 100 µM,,,,,,,,,,,
Cc1ccccc1-n1c(=S)[nH]c2c(sc(=O)n2-c2ccccc2C)c1=O,> 100 µM,> 100 µM,> 100 µM,> 100 µM,> 100 µM,> 100 µM,> 100 µM,> 100 µM,> 100 µM,,,,,,,,,,,
COc1ccc(NC(=O)CC(=O)N/N=C(\C)c2cc3ccccc3oc2=O)cc1,,,> 100 µM,> 100 µM,,> 100 µM,> 100 µM,> 100 µM,> 100 µM,,,,,,,,,,,
O=C1OCC2=C1C(c1cccc(C(F)(F)F)c1)c1cc3c(cc1N2CCO)OCCO3 (stereo unspecified),> 33.3 µM,> 33.3 µM,> 33.3 µM,> 33.3 µM,> 33.3 µM,,> 33.3 µM,> 33.3 µM,> 33.3 µM,2700,> 33.3,1.53,1.15 µM,1.63,1.99,1.24,,1.81,> 33.3 µM,> 33.3
COc1ccc(Br)c(CN2CCc3ccccc32)c1OS(=O)(=O)c1ccc(C)cc1,> 100 µM,> 100 µM,> 100 µM,> 100 µM,,65.7 µM,> 100 µM,> 100 µM,> 100 µM,,,,,,,,,,,
O=C1OC(=O)C23CSCC12C1C=CC3O1 (stereo unspecified),> 100 µM,,> 100 µM,> 100 µM,> 100 µM,> 100 µM,> 100 µM,> 100 µM,> 100 µM,,,,,,,,,,,
COc1ccc(N2C(=O)[C@@H](N=[N+]=[N-])[C@@H]2[C@H]2COC(C)(C)O2)cc1,> 100 µM,> 100 µM,> 100 µM,> 100 µM,> 100 µM,> 100 µM,> 100 µM,> 100 µM,> 100 µM,,,,,,,,,,,
CS(=O)(=O)c1ccc(COP(N)(=O)N(CCCl)CCCl)cc1 (stereo unspecified),> 100 µM,> 100 µM,> 100 µM,> 100 µM,> 100 µM,> 100 µM,> 100 µM,> 100 µM,> 100 µM,,,,,,,,,,,
CC(C)=Cc1cc(C)c2ccc(C)c3c2c1C(C)=C(O)C3=O,82.3 µM,,> 100 µM,> 100 µM,65.9 µM,> 100 µM,75.6 µM,81 µM,> 100 µM,,39.5,32,23.8 µM,23.1,25.7,30,41.9,28.7,89.5 µM,30.8
COc1cc(Cc2c(C)cc(OC)c3[nH]c4ccccc4c23)cc2c1[nH]c1ccccc12,11.6 µM,> 25 µM,,16.7 µM,,,> 25 µM,12.8 µM,> 25 µM,7630,,5.73,,,3.97,8.09,,,,4.67
CCC(C)(O)c1cn(-c2ccc(Cl)cc2)nn1 (stereo unspecified),> 100 µM,> 100 µM,> 100 µM,> 100 µM,> 100 µM,> 100 µM,> 100 µM,> 100 µM,> 100 µM,,,,,,,,,,,
CCCCNS(=O)(=O)c1ccc(-c2ccc3c(c2)-c2ccc(S(=O)(=O)NCCCC)cc2S3(=O)=O)cc1,87.9 µM,41.5 µM,> 100 µM,57.3 µM,,30.6 µM,,32 µM,> 100 µM,,,,,,,,,,,
CC(=O)OCC1OC(n2c(=O)[nH]c(=O)c3n[nH]nc32)C(OC(C)=O)C(OC(C)=O)C1OC(C)=O (stereo unspecified),> 100 µM,> 100 µM,> 100 µM,> 100 µM,> 100 µM,> 100 µM,> 100 µM,,> 100 µM,,,,,,,,,,,
CC(C)=Cc1cc(CCC/C(C)=C/Cc2c(O)cc(C)c(C(=O)O)c2O)co1,> 100 µM,> 100 µM,> 100 µM,> 100 µM,> 100 µM,,> 100 µM,,> 100 µM,,,,,,,,,,> 100 µM,
O=C1CC(c2cccc(Cl)c2)Oc2ccccc21 (stereo unspecified),35.6 µM,42.2 µM,32.2 µM,,23.3 µM,,30.8 µM,41.3 µM,72.1 µM,,,,,,,,,,,
Cc1cc(=O)[nH]c(NNC(C#N)c2ccccc2O)n1 (stereo unspecified),> 100 µM,> 100 µM,> 100 µM,> 100 µM,93.6 µM,> 100 µM,,84.2 µM,> 100 µM,,,,,,,,,,,

Structure (SMILES),TGI [1],TGI [2],TGI [3],TGI [4],TGI [5],TGI [6],TGI [7],TGI [8],TGI [9],GI50 [2] [nM],GI50 [3] [µM],GI50 [4] [µM],GI50 [5],GI50 [7] [µM],GI50 [1] [µM],GI50 [9] [µM],GI50 [6] [µM],GI50 [10] [µM],TGI [10],GI50 [8] [µM]
CCCCCCC(=O)C/C(CCC(=O)N(Cc1ccccc1)Cc1ccccc1)=N\NC(N)=O,> 100 µM,> 100 µM,> 100 µM,> 100 µM,> 100 µM,> 100 µM,> 100 µM,> 100 µM,> 100 µM,,,,,,,,,,,
CCOC(=O)[C@@]12C(C)=CC(=O)O[C@]1(C)C1C(=O)NC(=O)C12 (stereo partly specified),> 100 µM,> 100 µM,> 100 µM,> 100 µM,,> 100 µM,> 100 µM,> 100 µM,> 100 µM,,,,,,,,,,,
C=CCC12CC(=O)CCC1c1ccc(OC)cc1C2=O (stereo unspecified),> 100 µM,> 100 µM,> 100 µM,> 100 µM,> 100 µM,> 100 µM,> 100 µM,> 100 µM,> 100 µM,,,,,,,,,,,
O=c1cc[nH]cc1-c1c[nH]ccc1=O,,> 100 µM,> 100 µM,> 100 µM,> 100 µM,> 100 µM,,> 100 µM,> 100 µM,,,,,,,,,,,
C=CC1C(CC2OC(CO)C(O)C(O)C2O)OC=C2C(=O)OCCC21O (stereo unspecified),71.4 µM,9.35 µM,50.9 µM,48.9 µM,78.7 µM,,37.1 µM,76.5 µM,29.9 µM,1680,20.4,18.5,30.6 µM,13.8,22.4,5.38,,,,20.9
CC(C)C1(NC(=O)C2CC3c4cccc5[nH]cc(c45)CC3N(C)C2)OC2(O)C3CCCN3C(=O)C(Cc3ccccc3)N2C1=O (stereo unspecified),> 100 µM,> 100 µM,> 100 µM,> 100 µM,> 100 µM,,> 100 µM,,> 100 µM,,,,,,,,,,> 100 µM,
Cc1ccc(N2C(=O)/C(=C/c3ccc(N(CCC#N)CCC#N)cc3)N=C2COc2ccc(Cl)cc2Cl)cc1,> 100 µM,,> 100 µM,> 100 µM,> 100 µM,> 100 µM,> 100 µM,> 100 µM,> 100 µM,,,,,,,,,,,
COC(=O)c1onc(C2OC(C)(C)OC2C(O)COC(c2ccccc2)(c2ccccc2)c2ccccc2)c1C(=O)OC (stereo unspecified),> 100 µM,> 100 µM,,> 100 µM,,> 100 µM,> 100 µM,> 100 µM,> 100 µM,,,,,,,,,,,
CCCCCCCC(=O)[O-].CCCCCCCC(=O)[O-].N.N.N.N.[Co+3].[O-][Cl+3]([O-])([O-])[O-],> 100 µM,> 100 µM,> 100 µM,> 100 µM,,> 100 µM,> 100 µM,> 100 µM,> 100 µM,> 100000,> 100,> 100,,> 100,> 100,> 100,74.6,,,> 100
CCOC(=O)c1sc2c(C(=O)OCC)n3cc(C)cc(C)c3c2c1O,> 100 µM,> 100 µM,,> 100 µM,> 100 µM,> 100 µM,> 100 µM,> 100 µM,> 100 µM,,,,,,,,,,,
O=S(=O)(/N=S(/Nc1ccccc1)C(F)(F)Cl)c1ccccc1 (stereo unspecified),> 100 µM,> 100 µM,> 100 µM,> 100 µM,,> 100 µM,> 100 µM,> 100 µM,> 100 µM,,,,,,,,,,,
O=C1C(Cl)=C(Cl)C(=O)N1c1ccc(Cl)c(Cl)c1Cl,> 100 µM,88.5 µM,> 100 µM,> 100 µM,56.2 µM,,> 100 µM,> 100 µM,> 100 µM,,,,,,,,,,,
COc1cc(/C=C/C(=O)CC(=O)/C=C/c2cc(OC)c(O)c(OC)c2)cc(OC)c1O,16.3 µM and 16.6 µM,,25 µM and > 100 µM,25 µM and > 100 µM,25 µM and > 100 µM,7.3 µM and 16.1 µM,25 µM and > 100 µM,25 µM and > 100 µM,> 100 µM,,23.5,16.6,21.1 µM,,4.24,,2.63,13.4,25 µM and 34.4 µM,53.6
COc1cc2c(cc1OC)C(C(CBr)CBr)N(C1CCCC1)CC2 (stereo unspecified),> 100 µM,> 100 µM,> 100 µM,> 100 µM,> 100 µM,> 100 µM,> 100 µM,> 100 µM,> 100 µM,,,,,,,,,,,
CC(C)N(C(=O)C12C3C4C5(C(=O)O)C(C1C35I)C42C(=O)O)C(C)C (stereo unspecified),,> 100 µM,> 100 µM,> 100 µM,,,> 100 µM,> 100 µM,> 100 µM,,,,,,,,,,,
C1CSC[C@H]2COC[C@@H](CSCCS1)S2,,> 100 µM,> 100 µM,> 100 µM,,,> 100 µM,,> 100 µM,,,,,,,,,,> 100 µM,
Cc1ccc(SSCC(O)C(O)CSSc2ccc(C)cc2)cc1 (stereo unspecified),20.5 µM,26 µM and 31.4 µM,30.5 µM and 28.1 µM,35.9 µM and 26.4 µM,15.4 µM and 27 µM,16.9 µM and 16.1 µM,31.5 µM and 31.7 µM,30.4 µM and 29 µM,20.2 µM and 27.2 µM,,,,4.04 µM and 13.2 µM,,,,,,,
CCCC(O)c1cn(-c2cccc(S(=O)(=O)O)c2)nn1 (stereo unspecified),> 100 µM,> 100 µM,> 100 µM,> 100 µM,> 100 µM,> 100 µM,> 100 µM,> 100 µM,> 100 µM,,,,,,,,,,,
COc1ccc(-c2cc3ccccc3[nH]c2=O)cc1OC,> 100 µM,,> 100 µM,> 100 µM,> 100 µM,> 100 µM,> 100 µM,> 100 µM,> 100 µM,,,,,,,,,,,
CC(C)[P+](c1ccccc1)(c1ccccc1)c1ccccc1,21.9 µM,,7.06 µM,> 100 µM,> 100 µM,> 100 µM,> 100 µM,> 100 µM,> 100 µM,,1.07,5.07,50.7 µM,5.54,3.77,6.83,27.4,5.55,> 100 µM,5.69
